ChEMBL document CHEMBL5344417

Legend:
[1] = target: T1, Peroxisome proliferator-activated receptor alpha (Homo sapiens) (UniProt Q07869); conditions: filed as agonist
T1 sequence (whole entry): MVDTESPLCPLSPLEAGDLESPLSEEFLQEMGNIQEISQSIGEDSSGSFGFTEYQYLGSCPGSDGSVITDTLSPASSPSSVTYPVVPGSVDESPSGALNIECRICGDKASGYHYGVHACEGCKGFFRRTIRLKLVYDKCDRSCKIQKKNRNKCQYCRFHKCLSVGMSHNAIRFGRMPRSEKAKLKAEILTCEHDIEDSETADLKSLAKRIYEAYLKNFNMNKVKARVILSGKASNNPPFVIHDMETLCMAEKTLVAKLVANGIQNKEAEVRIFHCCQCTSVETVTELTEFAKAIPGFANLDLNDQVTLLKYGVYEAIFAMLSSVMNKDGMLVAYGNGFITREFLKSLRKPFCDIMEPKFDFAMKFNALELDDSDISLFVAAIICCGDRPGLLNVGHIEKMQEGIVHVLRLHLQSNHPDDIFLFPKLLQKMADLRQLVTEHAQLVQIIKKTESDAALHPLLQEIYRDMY
Description: Binding affinity to recombinant PPAR alpha LBD (unknown origin) expressed in Escherichia coli BL21 assessed as melting temperature by differential scanning calorimetry analysis (Rvb = 47.45 degreeC)

[2] = target: T2, Peroxisome proliferator-activated receptor gamma (Homo sapiens) (UniProt P37231); conditions: filed as agonist
T2 sequence (whole entry): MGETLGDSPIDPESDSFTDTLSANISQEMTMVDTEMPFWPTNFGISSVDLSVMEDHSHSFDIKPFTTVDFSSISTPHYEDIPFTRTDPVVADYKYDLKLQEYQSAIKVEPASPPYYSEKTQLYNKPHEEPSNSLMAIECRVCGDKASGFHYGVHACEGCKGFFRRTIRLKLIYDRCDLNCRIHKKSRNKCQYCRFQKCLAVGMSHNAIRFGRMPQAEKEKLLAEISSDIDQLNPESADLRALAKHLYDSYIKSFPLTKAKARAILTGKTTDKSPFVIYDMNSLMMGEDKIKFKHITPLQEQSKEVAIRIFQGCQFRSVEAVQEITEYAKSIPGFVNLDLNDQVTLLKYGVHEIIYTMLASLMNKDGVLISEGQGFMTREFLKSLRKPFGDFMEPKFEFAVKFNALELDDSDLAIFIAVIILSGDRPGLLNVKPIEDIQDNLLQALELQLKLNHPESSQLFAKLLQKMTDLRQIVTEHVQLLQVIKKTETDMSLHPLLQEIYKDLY

Tm [1] [°C]	Tm [2] [°C]	Structure (SMILES)
50	–	Cc1cccc(Nc2cc(Cl)nc(SCC(=O)O)n2)c1C
–	53	CN(CCOc1ccc(CC2SC(=O)NC2=O)cc1)c1ccccn1 (configuration not stated)
